Data reported in US20230146455A1, “TREATMENT OF INFLAMMATORY DISEASES WITH PEPTIDES AND PHARMACEUTICAL COMPOSITIONS” (Yuyu Pharma, Inc., priority 2020, published 2023).
Where “and” joins values, the source holds several entries; their conditions need not be identical. Equal values may be shown once. Where a SMILES comes first, the peptide text is derived from it. [ ]: non-standard residue; d: D form. Hyp = O=C(O)[C@@H]1C[C@@H](O)CN1

Columns and labels:
[1] = system: VEGF-A; assay: Example 9 Luminex, LPS hPBMCs: VEGF-A; type: cell-based, human; settings: for conc/live cell / Concentration: Bead VEGF-A; for Concentration: dilution 2.0
Procedure: (§1) Treatment Human PBMCs were pretreated with YY-101, YDE-011 and YDE-043 or reference compound; Xiidra® at various concentration (ranging from 1 nM to 100 uM) for 2 h before stimulation. An equal volume of 0.5% DMSO was used as a vehicle control. Then, the cells were treated with LPS at 5 ug/ml. The supernatants from treated cells were harvested at 24 h and placed in a 96 well for Luminex cytokine & chemokine profiling using a Luminex 200 multiplex assay (Luminex; R&D system, USA).
(§2) The main study arm with triplicate wells per group in a 24-well plate: • 1. Blank • 2. PBMC: 0.5% DMSO • 3. PBMC+LPS (5 ug/ml) • 4. PBMC+YY-101 100 uM • 5. PBMC+YY-101 10 uM • 6. PBMC+YY-101 1 uM • 7. PBMC+YY-101 0.1 uM • 8. PBMC+YY-101 0.01 uM • 9. PBMC+LPS (5 ug/ml)+Xiidra®100 uM • 10. PBMC+LPS (5 ug/ml)+Xiidra® 10 uM • 11. PBMC+LPS (5 ug/ml)+Xiidra® 1 uM • 12. PBMC+LPS (5 ug/ml)+Xiidra®0.1 uM • 13. PBMC+LPS (5 ug/ml)+Xiidra®0.01 uM • 14. PBMC+LPS (5 ug/ml)+Xiidra®0.001 uM • 15. PBMC+LPS (5 ug/ml)+YY-101 100 uM • 16. PBMC+LPS (5 ug/ml)+YY-101 10 uM • 17. PBMC+LPS (5 ug/ml)+YY-101 1 uM • 18. PBMC+LPS (5 ug/ml)+YY-101 0.1 uM • 19. PBMC+LPS (5 ug/ml)+YY-101 0.01 uM • 20. PBMC+LPS (5 ug/ml)+YY-101 0.001 uM • 21. PBMC+LPS (5 ug/ml)+YDE-011 100 uM • 22. PBMC+LPS (5 ug/ml)+YDE-011 10 uM • 23. PBMC+LPS (5 ug/ml)+YDE-011 1 uM • 24. PBMC+LPS (5 ug/ml)+YDE-011 0.1 uM • 25. PBMC+LPS (5 ug/ml)+YDE-011 0.01 uM • 26. PBMC+LPS (5 ug/ml)+YDE-011 0.001 uM • 27. PBMC+LPS (5 ug/ml)+YDE-043 100 uM • 28. PBMC+LPS (5 ug/ml)+YDE-043 10 uM • 29. PBMC+LPS (5 ug/ml)+YDE-043 1 uM • 30. PBMC+LPS (5 ug/ml)+YDE-043 0.1 uM • 31. PBMC+LPS (5 ug/ml)+YDE-043 0.01 uM • 32. PBMC+LPS (5 ug/ml)+YDE-043 0.001 uM
(§3) Multiplex assay was used to measure 30 cytokines and chemokines. The 1:2, 1:10 and 1:200 diluted cell supernatant and serial dilution of the standard were dispensed into a 96 well plate at 50 ul/well. Then, the pre-mixed cocktail of antibody-coated magnetic beads was dispensed at 50 ul/well and incubated at room temperature for 2 h in a horizontal orbital microplate shaker at 800±500 rpm. The beads were washed using a magnetic device to prevent loss. The biotin-antibody was dispensed in 50 ul of each well and incubated at room temperature for 1 h in a shaker at 800±500 rpm. After washing, streptavidin-PE was added at 50 ul/well and incubated at room temperature for 30 min in a shaker under the same conditions. Finally, after washing, wash buffer (100 ul/well) was added to the plate and incubated in a shaker for 2 min. The Luminex™ 200 setting were set according to the manufacturer's protocol. The data was calculated with a standard five-parameter logistic nonlinear regression analysis of the data (xPonent software 4.2, USA). The levels of cytokine/chemokine are normalized to the live cell counts (1×10^5 cells/mL) and presented as concentrations per mL (pg/mL or ng/mL).

[2] = system: IL-1 alpha; assay: Example 9 Luminex, LPS hPBMCs: IL-1 alpha; type: cell-based, human; settings: IL-1 alpha, replicates and Mean
Procedure: as §1, §2, §3

[3] = PBMC + LPS(5 ug/ml) + test article 1 uM, Mean
[4] = PBMC + LPS(5 ug/ml) + test article 1 uM, single replicates
[5] = PBMC + LPS(5 ug/ml) + test article 10 uM, Mean
[6] = PBMC + LPS(5 ug/ml) + test article 10 uM, single replicates
[7] = PBMC + LPS(5 ug/ml) + test article 0.001 uM, Mean
[8] = PBMC + LPS(5 ug/ml) + test article 0.001 uM, single replicates
[9] = PBMC + LPS(5 ug/ml) + test article 0.01 uM, Mean
[10] = PBMC + LPS(5 ug/ml) + test article 0.01 uM, single replicates
[11] = PBMC + LPS(5 ug/ml) + test article 0.1 uM, Mean
[12] = PBMC + LPS(5 ug/ml) + test article 0.1 uM, single replicates
[13] = PBMC + LPS(5 ug/ml) + YDE011 0.001 uM
[14] = PBMC + LPS(5 ug/ml) + YDE011 0.001 uM, mean
[15] = PBMC + LPS(5 ug/ml) + YDE011 0.01 uM
[16] = PBMC + LPS(5 ug/ml) + YDE011 0.01 uM, mean
[17] = PBMC + LPS(5 ug/ml) + YDE011 0.1 uM
[18] = PBMC + LPS(5 ug/ml) + YDE011 0.1 uM, mean
[19] = PBMC + LPS(5 ug/ml) + YDE011 1 uM
[20] = PBMC + LPS(5 ug/ml) + YDE011 1 uM, mean
[21] = PBMC + LPS(5 ug/ml) + YDE011 10 uM
[22] = PBMC + LPS(5 ug/ml) + YDE011 10 uM, mean
[23] = PBMC + LPS(5 ug/ml) + YDE011 100 uM
[24] = PBMC + LPS(5 ug/ml) + YDE011 100 uM, mean

Question: With `CC(C)C[C@H](NC(=O)CNC(=O)[C@H](CC(C)C)NC(=O)[C@H](CCC(N)=O)NC(=O)CNC(=O)[C@@H]1C[C@@H](O)CN1)C(=O)N[C@@H](C)C(=O)NCC(=O)N1CCC[C@H]1C(=O)N[C@@H](CCCCN)C(=O)O` [YDE-011] (H-[Hyp]GQLGLAGPK-OH) as the molecule, how does the conc/live cell [1, 3] read?
Answer: 0.3 pg/10^5

Question: And the Concentration [1, 3]?
Answer: 2.8 pg/mL

Question: What about the Concentration [1, 4] of the same molecule?
Answer: 0.6 pg/mL

Question: What about the conc/live cell [1, 4] of the same molecule?
Answer: 0.0 pg/10^5 and 0.1 pg/10^5

Question: And the conc/live cell [1, 5]?
Answer: 0.3 pg/10^5

Question: What about the Concentration [1, 5] of the same molecule?
Answer: 2.1 pg/mL

Question: And the Concentration [1, 6]?
Answer: 3.6 pg/mL and 0.6 pg/mL

Question: What about the conc/live cell [1, 6] of the same molecule?
Answer: 0.7 pg/10^5 and 0.0 pg/10^5 and 0.1 pg/10^5

Question: What about the conc/live cell ([1]; PBMC + LPS(5 ug/ml) + test article 100 uM, Mean) of the same molecule?
Answer: 0.0 pg/10^5

Question: And the conc/live cell ([1]; PBMC + LPS(5 ug/ml) + test article 100 uM, single replicates)?
Answer: 0.0 pg/10^5

Question: And the “Concentration, Bead name: VEGF-A” value [1, 7]?
Answer: 4.3 pg/mL

Question: And the “MFI, Bead name: VEGF-A” value [1, 7]?
Answer: −0.4

Question: And the “conc/live cell, Bead name: VEGF-A” value [1, 7]?
Answer: 0.8 pg/10^5

Question: What about the “Concentration, Bead name: VEGF-A” value [1, 8] of the same molecule?
Answer: 6.1 pg/ml (2×) and 0.6 pg/ml

Question: What about the “MFI, Bead name: VEGF-A” value [1, 8] of the same molecule?
Answer: 0.3 (2×) and −1.8

Question: And the “conc/live cell, Bead name: VEGF-A” value [1, 8]?
Answer: 1.4 pg/10^5 and 0.1 pg/10^5 and 1.1 pg/10^5

Question: And the “Concentration, Bead name: VEGF-A” value [1, 9]?
Answer: 2.8 pg/mL

Question: And the “MFI, Bead name: VEGF-A” value [1, 9]?
Answer: −1.6

Question: What about the “conc/live cell, Bead name: VEGF-A” value [1, 9] of the same molecule?
Answer: 0.3 pg/10^5

Question: What about the “Concentration, Bead name: VEGF-A” value [1, 10] of the same molecule?
Answer: 4.9 pg/mL and 0.6 pg/mL

Question: And the “MFI, Bead name: VEGF-A” value [1, 10]?
Answer: −0.3 and −2.8 and −1.8

Question: What about the “conc/live cell, Bead name: VEGF-A” value [1, 10] of the same molecule?
Answer: 0.8 pg/10^5 and 0.0 pg/10^5 and 0.1 pg/10^5

Question: And the “Concentration, Bead name: VEGF-A” value [1, 11]?
Answer: 0.6 pg/mL

Question: And the “MFI, Bead name: VEGF-A” value [1, 11]?
Answer: −2.1

Question: And the “conc/live cell, Bead name: VEGF-A” value [1, 11]?
Answer: 0.1 pg/10^5

Question: What about the “Concentration, Bead name: VEGF-A” value [1, 12] of the same molecule?
Answer: 0.6 pg/mL

Question: And the “MFI, Bead name: VEGF-A” value [1, 12]?
Answer: −1.8 (2×) and −2.8

Question: What about the “conc/live cell, Bead name: VEGF-A” value [1, 12] of the same molecule?
Answer: 0.1 pg/10^5 (2×) and 0.0 pg/10^5

Question: What about the “Concentration, Bead name: VEGF-A” value [1, 4] of the same molecule?
Answer: 4.9 pg/mL

Question: What about the “MFI, Bead name: VEGF-A” value [1, 4] of the same molecule?
Answer: −0.3

Question: What about the “conc/live cell, Bead name: VEGF-A” value [1, 4] of the same molecule?
Answer: 0.9 pg/10^5

Question: What about the Concentration [2, 13] of the same molecule?
Answer: 336.1 pg/mL and 335.4 pg/mL and 361.1 pg/mL

Question: What about the conc/live cell [2, 13] of the same molecule?
Answer: 74.7 pg/10^5 and 57.8 pg/10^5 and 62.3 pg/10^5

Question: What about the Concentration [2, 14] of the same molecule?
Answer: 344.2 pg/mL

Question: What about the conc/live cell [2, 14] of the same molecule?
Answer: 64.9 pg/10^5

Question: What about the Concentration [2, 15] of the same molecule?
Answer: 359.2 pg/mL and 381.8 pg/mL and 342.8 pg/mL

Question: What about the conc/live cell [2, 15] of the same molecule?
Answer: 57.9 pg/10^5 and 74.9 pg/10^5 and 54.4 pg/10^5

Question: What about the Concentration [2, 16] of the same molecule?
Answer: 361.3 pg/mL

Question: What about the conc/live cell [2, 16] of the same molecule?
Answer: 62.4 pg/10^5

Question: And the Concentration [2, 17]?
Answer: 332.4 pg/mL and 312.9 pg/mL and 347.3 pg/mL

Question: What about the conc/live cell [2, 17] of the same molecule?
Answer: 50.4 pg/10^5 and 62.6 pg/10^5 and 60.9 pg/10^5

Question: And the Concentration [2, 18]?
Answer: 330.9 pg/mL

Question: What about the conc/live cell [2, 18] of the same molecule?
Answer: 58.0 pg/10^5

Question: And the Concentration [2, 19]?
Answer: 349.2 pg/mL and 321.1 pg/mL and 345.8 pg/mL

Question: And the conc/live cell [2, 19]?
Answer: 63.5 pg/10^5 and 66.9 pg/10^5 and 72.0 pg/10^5

Question: And the Concentration [2, 20]?
Answer: 338.7 pg/mL

Question: And the conc/live cell [2, 20]?
Answer: 67.5 pg/10^5

Question: What about the Concentration [2, 21] of the same molecule?
Answer: 356.2 pg/mL and 327.9 pg/mL and 345.8 pg/mL

Question: What about the conc/live cell [2, 21] of the same molecule?
Answer: 66.0 pg/10^5 and 56.5 pg/10^5 and 73.6 pg/10^5

Question: And the Concentration [2, 22]?
Answer: 343.3 pg/mL

Question: And the conc/live cell [2, 22]?
Answer: 65.4 pg/10^5

Question: And the Concentration [2, 23]?
Answer: 446.4 pg/mL and 402.2 pg/mL and 436.1 pg/mL

Question: What about the conc/live cell [2, 23] of the same molecule?
Answer: 73.2 pg/10^5 and 65.9 pg/10^5 and 72.7 pg/10^5

Question: What about the Concentration [2, 24] of the same molecule?
Answer: 428.2 pg/mL

Question: What about the conc/live cell [2, 24] of the same molecule?
Answer: 70.6 pg/10^5
